The values that follow come from patent US7132258B1, “Nucleic acid encoding vitamin D receptor related polypeptide” (University of Massachusetts, priority 1998, dated 2006).

The test system of this experiment is RAC3 message. Description: Northern blot analysis of RAC3 expression in HL-60 cells. It is filed as cell-based, human. As for the experimental part:
The expression of RAC3 was examined with Northern blot analysis using standard methods. A single message of about 7.5 kb was detected in human HL60 cells as well as in mouse embryonic tissues. […] Thus, a positive feedback regulatory network may operate in which RAC3 binding to RA-RAR complex activates transcription which, in turn, increases transcription of RAC3.
Cells were treated with different concentration of RA (0, 10, 100, 1000 nM) for a period of 12 hours. In the control group, cells were treated with equal volume of solvent (80% EtOH plus 20% DMSO). Total RNAs were isolated using an RNA isolation kit (RNAzol) and separated on a 1% agarose gel with 2.2 M formaldehyde and blotted onto nylon filters. Filters were hybridized with random-primed ^32P-labeled DNA probes specific for RAC3, Tw2, and SRC1 in hybridization buffer (50% formamide, SX SSPE [1×SSPE is 0.18 M NaCl, 10 mM NaPO4, and 1 mM EDTA at pH 7.7], 2× Denhardt solution, 0.1% SDS, 0.1 mg of sheared herring sperm DNA per ml) at 42° C. overnight. […]
The expression patterns of RAC3 in different human tissues and cancer cells were examined and compared with that of SRC-1 and TIF2. […] Total RNA (20 μg) of HL-60 cells treated with indicated concentrations of atRA for 12 hours or with 1 μM tRA plus 10 μM cycloheximide (CHX) were analyzed for RAC3 message by Northem blot analysis. […]

Structures are written as SMILES. “Also recorded” adds a separate entry of the source.

Consider `CC1=C(/C=C/C(C)=C/C=C/C(C)=C/C(=O)O)C(C)(C)CCC1` [atRA, all-trans retinoic acid], for which the “expression of RAC3” value (HL60 cells treated with atRA) is recorded as “up-regulated; also recorded: significantly enhances”.
For `C[C@@H]1C[C@@H]([C@H](O)CC2CC(=O)NC(=O)C2)C(=O)[C@@H](C)C1` [cycloheximide], the “effect on stimulation of RAC3 expression by atRA” value (HL60 cells, addition of cycloheximide) is “does not have an effect”.
